According to patent US7910751B2, “Heterocyclidene acetamide derivative” (Mochida Pharmaceutical Co., Ltd., priority 2005, dated 2011):

Target: T1, human TRPV1 (Homo sapiens, UniProt Q8NER1)
T1 construct: expressed in transfected cells; host or cells: CHO-K1
Experiment: Measurement of capsaicin-induced Ca influx in human TRPV1 transformed CHO cell line using FDSS-6000
Assay type: cell-based
Settings: concentration at which the capsaicin concentration-reaction curve is shifted two times to the right, human TRPV1 transformed CHO cells

T1 sequence (Q8NER1 whole entry): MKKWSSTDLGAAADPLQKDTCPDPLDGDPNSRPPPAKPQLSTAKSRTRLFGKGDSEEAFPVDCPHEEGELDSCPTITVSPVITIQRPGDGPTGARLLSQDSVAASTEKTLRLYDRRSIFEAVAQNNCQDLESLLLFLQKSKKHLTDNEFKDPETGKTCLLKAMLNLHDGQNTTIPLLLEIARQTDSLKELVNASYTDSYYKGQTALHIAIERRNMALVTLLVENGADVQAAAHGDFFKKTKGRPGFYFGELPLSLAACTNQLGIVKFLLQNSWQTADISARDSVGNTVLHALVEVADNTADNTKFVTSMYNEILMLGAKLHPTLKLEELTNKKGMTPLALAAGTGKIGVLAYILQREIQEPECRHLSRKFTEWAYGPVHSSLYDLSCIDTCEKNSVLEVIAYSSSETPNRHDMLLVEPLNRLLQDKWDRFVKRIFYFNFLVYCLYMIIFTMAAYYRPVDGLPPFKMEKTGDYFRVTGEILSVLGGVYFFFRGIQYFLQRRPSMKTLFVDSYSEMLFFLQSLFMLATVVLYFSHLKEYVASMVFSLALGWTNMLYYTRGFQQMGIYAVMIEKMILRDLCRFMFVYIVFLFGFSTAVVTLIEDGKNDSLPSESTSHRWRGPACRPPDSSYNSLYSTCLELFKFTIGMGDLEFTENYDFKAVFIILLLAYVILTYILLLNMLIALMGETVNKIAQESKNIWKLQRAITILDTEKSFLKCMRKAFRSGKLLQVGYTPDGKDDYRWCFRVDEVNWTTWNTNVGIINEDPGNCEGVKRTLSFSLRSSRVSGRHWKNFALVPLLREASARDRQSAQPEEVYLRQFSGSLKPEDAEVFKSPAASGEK

Row | Structure (SMILES) | A2 VALUE
1 | CCCCC(=O)N1CCC/C(=C\C(=O)Nc2ccc3cccnc3c2)c2ccc(C(F)(F)F)cc21 [Example 192, (E)-2-(1-pentanoyl-8-trifluoromethyl-1,2,3,4-tetrahydro-5H-benzo[b]azepin-5-ylidene)-N-(quinolin-7-yl)acetamide] | A (compounds of the present invention having an A2 value of less than 100 nM are represented by A)
2 | O=C(/C=C1\CCCN(C(=O)C2CCCC2)c2cc(C(F)(F)F)ccc21)Nc1ccc2cccnc2c1 [Example 193, (E)-2-(1-cyclopentanecarbonyl-8-trifluoromethyl-1,2,3,4-tetrahydro-5H-benzo[b]azepin-5-ylidene)-N-(quinolin-7-yl)acetamide] | A (compounds of the present invention having an A2 value of less than 100 nM are represented by A)
3 | Cc1ccc(S(=O)(=O)N2CCC/C(=C\C(=O)Nc3ccc4cccnc4c3)c3ccc(C(F)(F)F)cc32)cc1 [Example 194, (E)-2-(1-(4-methylbenzenesulfonyl)-8-trifluoromethyl-1,2,3,4-tetrahydro-5H-benzo[b]azepin-5-ylidene)-N-(quinolin-7-yl)acetamide] | B (compounds having an A2 value of 100 nM or more are represented by B)
4 | CC(=O)N1CCC/C(=C\C(=O)Nc2ccc3cccnc3c2)c2ccc(C(F)(F)F)cc21 [Example 195, (E)-2-(1-acetyl-8-trifluoromethyl-1,2,3,4-tetrahydro-5H-benzo[b]azepin-5-ylidene)-N-(quinolin-7-yl)acetamide] | B (compounds having an A2 value of 100 nM or more are represented by B)
5 | CN1CCC/C(=C\C(=O)Nc2ccc3cccnc3c2)c2ccc(C(F)(F)F)cc21 [Example 196, (E)-2-(1-methyl-8-trifluoromethyl-1,2,3,4-tetrahydro-5H-benzo[b]azepin-5-ylidene)-N-(quinolin-7-yl)acetamide] | A (compounds of the present invention having an A2 value of less than 100 nM are represented by A)
6 | O=C(/C=C1\CCCN(CC2CCCC2)c2cc(C(F)(F)F)ccc21)Nc1ccc2cccnc2c1 [Example 197, (E)-2-(1-cyclopentylmethyl-8-trifluoromethyl-1,2,3,4-tetrahydro-5H-benzo[b]azepin-5-ylidene)-N-(quinolin-7-yl)acetamide] | A (compounds of the present invention having an A2 value of less than 100 nM are represented by A)
7 | CN1CCC/C(=C\C(=O)Nc2cccc3ccc(O)cc23)c2ccc(C(F)(F)F)cc21 [Example 198, (E)-2-(1-methyl-8-trifluoromethyl-1,2,3,4-tetrahydro-5H-benzo[b]azepin-5-ylidene)-N-(7-hydroxynaphthalen-1-yl)acetamide] | A (compounds of the present invention having an A2 value of less than 100 nM are represented by A)
8 | CN1CCC/C(=C\C(=O)Nc2cccc3c2CC(O)CC3)c2ccc(C(F)(F)F)cc21 (stereo not shown) [Example 199, (E)-2-(1-methyl-8-trifluoromethyl-1,2,3,4-tetrahydro-5H-benzo[b]azepin-5-ylidene)-N-(7-hydroxy-5,6,7,8-tetrahydronaphthalen-1-yl)acetamide] | A (compounds of the present invention having an A2 value of less than 100 nM are represented by A)
9 | O=C(/C=C1\CCN(c2ncc(CO)cc2Cl)c2cc(C(F)(F)F)ccc21)Nc1cccc2c1CC(O)CC2 (stereo not shown) [Example 200, (E)-2-(1-(3-chloro-5-hydroxymethyl-pyridin-2-yl)-7-trifluoromethyl-2,3-dihydroquinolin-4(1H)-ylidene)-N-(7-hydroxy-5,6,7,8-tetrahydronaphthalen-1-yl)acetamide] | A (compounds of the present invention having an A2 value of less than 100 nM are represented by A)
10 | O=C(/C=C1\CCOc2cc(C(F)(F)F)ccc21)Nc1cccc2c1CCCC2 [Example 202, (E)-2-(7-trifluoromethyl-chroman-4-ylidene)-N-(5,6,7,8-tetrahydronaphthalen-1-yl)acetamide] | A (compounds of the present invention having an A2 value of less than 100 nM are represented by A)
11 | Cc1sc2cnccc2c1NC(=O)/C=C1\CCOc2cc(C(F)(F)F)ccc21 [Example 204, (E)-2-(7-trifluoromethyl-chroman-4-ylidene)-N-(2-methylthieno[2,3-c]pyridin-3-yl)acetamide] | A (compounds of the present invention having an A2 value of less than 100 nM are represented by A)
12 | CC(C)c1ccc2c(c1)OCC/C2=C\C(=O)Nc1cccc2c1CC(O)CC2 (stereo not shown) [Example 206, (E)-2-(7-isopropyl-chroman-4-ylidene)-N-(7-hydroxy-5,6,7,8-tetrahydronaphthalen-1-yl)acetamide] | A (compounds of the present invention having an A2 value of less than 100 nM are represented by A)
13 | CC(C)c1ccc2c(c1)OCC/C2=C\C(=O)Nc1cccc2c1CC(O)CN2 (stereo not shown) [Example 207, (E)-2-(7-isopropyl-chroman-4-ylidene)-N-(3-hydroxy-1,2,3,4-tetrahydroquinolin-5-yl)acetamide] | A (compounds of the present invention having an A2 value of less than 100 nM are represented by A)
14 | O=C(/C=C1\CCOc2cc(Cl)ccc21)Nc1cccc2c1CC(O)CC2 (stereo not shown) [Example 208, (E)-2-(7-chloro-chroman-4-ylidene)-N-(7-hydroxy-5,6,7,8-tetrahydronaphthalen-1-yl)acetamide] | A (compounds of the present invention having an A2 value of less than 100 nM are represented by A)
15 | O=C(/C=C1\CCOc2cc(Cl)ccc21)Nc1cccc2c1CC(O)CN2 (stereo not shown) [Example 209, (E)-2-(7-chloro-chroman-4-ylidene)-N-(3-hydroxy-1,2,3,4-tetrahydroquinolin-5-yl)acetamide] | A (compounds of the present invention having an A2 value of less than 100 nM are represented by A)
16 | O=C(/C=C1\CCOc2cc(OC(F)(F)F)ccc21)Nc1cccc2c1CC(O)CC2 (stereo not shown) [Example 210, (E)-2-(7-trifluoromethoxy-chroman-4-ylidene)-N-(7-hydroxy-5,6,7,8-tetrahydronaphthalen-1-yl)acetamide] | A (compounds of the present invention having an A2 value of less than 100 nM are represented by A)
17 | O=C(/C=C1\CCOc2cc(OC(F)(F)F)ccc21)Nc1cccc2c1CC(O)CN2 (stereo not shown) [Example 211, (E)-2-(7-trifluoromethoxy-chroman-4-ylidene)-N-(3-hydroxy-1,2,3,4-tetrahydroquinolin-5-yl)acetamide] | A (compounds of the present invention having an A2 value of less than 100 nM are represented by A)
18 | O=C(/C=C1\CCOc2cc(OC(F)(F)C(F)F)ccc21)Nc1cccc2c1CC(O)CC2 (stereo not shown) [Example 212, (E)-2-(7-(1,1,2,2-tetrafluoroethoxy)-chroman-4-ylidene)-N-(7-hydroxy-5,6,7,8-tetrahydronaphthalen-1-yl)acetamide] | A (compounds of the present invention having an A2 value of less than 100 nM are represented by A)
19 | O=C(/C=C1\CCOc2cc(OC(F)(F)C(F)F)ccc21)Nc1cccc2c1CC(O)CN2 (stereo not shown) [Example 213, (E)-2-(7-(1,1,2,2-tetrafluoroethoxy)-chroman-4-ylidene)-N-(3-hydroxy-1,2,3,4-tetrahydroquinolin-5-yl)acetamide] | A (compounds of the present invention having an A2 value of less than 100 nM are represented by A)
